# In article PMC11200585, “Prospects for Prostate Cancer Chemotherapy: Cytotoxic Evaluation and Mechanistic Insights of Quinolinequinones with ADME/PK Profile” (Biomedicines, 2024):
# Tests used:
# Assay type in all cases: cell-based, human
# SF-268 = assay: NCI-60 one-dose screen (CNS cancer); settings: 10 µM single dose, 48 h
# Description: (§1) The obtained quinolinequinones were submitted to NCI, Bethesda, USA, and, as per standard protocol of NCI, all compounds were evaluated for their antiproliferative activity at single-dose assay (10 µM concentration in DMSO) on a panel of 60 cancer cell lines derived from leukemia, non-small-cell lung, colon, CNS, melanoma, ovarian, renal, prostate, and breast, as per protocol. Tested compounds were added to the microtiter culture plates followed by incubation for 48 h at 37 °C. Sulforhodamine B (SRB), a protein-binding dye, is used for endpoint determination. The percent of the growth of the treated cells was determined in comparison to the untreated control cells and the results of each tested compound were reported. Data from one-dose experiments pertain to the percentage growth at 10 μM [16, 17, 18].
# SF-295 = assay: NCI-60 one-dose screen (CNS cancer); settings: 10 µM single dose, 48 h
# Description: as §1
# SF-539 = assay: NCI-60 one-dose screen (CNS cancer); settings: 10 µM single dose, 48 h
# Description: as §1
# SNB-19 [1] = assay: NCI-60 one-dose screen (CNS cancer); settings: 10 µM single dose, 48 h
# Description: as §1
# SNB-75 = assay: NCI-60 one-dose screen (CNS cancer); settings: 10 µM single dose, 48 h
# Description: as §1
# U251 = assay: NCI-60 one-dose screen (CNS cancer); settings: for GP (growth percentage): 10 µM single dose, 48 h
# Description: as §1
# IGROV1 [2] = assay: NCI-60 one-dose screen (ovarian cancer); settings: 10 µM single dose, 48 h
# Description: as §1
# NCI/ADR-RES [3] = assay: NCI-60 one-dose screen (ovarian cancer); settings: 10 µM single dose, 48 h
# Description: as §1
# OVCAR-4 = assay: NCI-60 one-dose screen (ovarian cancer); settings: 10 µM single dose, 48 h
# Description: as §1
# OVCAR-5 [4] = assay: NCI-60 one-dose screen (ovarian cancer); settings: 10 µM single dose; for GP (growth percentage): 48 h
# Description: as §1
# OVCAR-8 [5] = assay: NCI-60 one-dose screen (ovarian cancer); settings: 10 µM single dose; for GP (growth percentage): 48 h
# Description: as §1
# SK-OV-3 = assay: NCI-60 one-dose screen (ovarian cancer); settings: 10 µM single dose, 48 h
# Description: as §1
# 786-0 = assay: NCI-60 one-dose screen (renal cancer); settings: 10 µM single dose; for GP (growth percentage): 48 h
# Description: as §1
# A498 = assay: NCI-60 one-dose screen (renal cancer); settings: 10 µM single dose, 48 h
# Description: as §1
# ACHN [6] = assay: NCI-60 one-dose screen (renal cancer); settings: 10 µM single dose, 48 h
# Description: as §1
# SN12C = assay: NCI-60 one-dose screen (renal cancer); settings: 10 µM single dose, 48 h
# Description: as §1
# TK-10 = assay: NCI-60 one-dose screen (renal cancer); settings: 10 µM single dose, 48 h
# Description: as §1
# UO-31 = assay: NCI-60 one-dose screen (renal cancer); settings: 10 µM single dose, 48 h
# Description: as §1
# DU-145 = assay: NCI-60 one-dose screen (prostate cancer); settings: 10 µM single dose, 48 h
# Description: as §1
# PC-3 = assay: NCI-60 one-dose screen (prostate cancer); settings: 10 µM single dose; for GP (growth percentage): 48 h; for inhibition at 10 µM: Homo sapiens
# Description: as §1
# BT-549 = assay: NCI-60 one-dose screen (breast cancer); settings: 10 µM single dose, 48 h
# Description: as §1
# HS 578T = assay: NCI-60 one-dose screen (breast cancer); settings: 10 µM single dose, 48 h
# Description: as §1
# MCF7 = assay: NCI-60 one-dose screen (breast cancer); settings: 10 µM single dose, 48 h
# Description: as §1
# MDA-MB-231/ATCC = assay: NCI-60 one-dose screen (breast cancer); settings: 10 µM single dose, 48 h
# Description: as §1
# MDA-MB-468 = assay: NCI-60 one-dose screen (breast cancer); settings: 10 µM single dose, 48 h
# Description: as §1
# T-47D = assay: NCI-60 one-dose screen (breast cancer); settings: 10 µM single dose, 48 h
# Description: as §1
# K-562 = assay: NCI-60 five-dose assay (leukemia); settings: SRB; for TGI: 48 h; for GI50 / LC50: Homo sapiens, K562, 48 h
# MOLT-4 = assay: NCI-60 five-dose assay (leukemia); settings: 48 h, SRB; for GI50 / LC50: Homo sapiens
# SR = assay: NCI-60 five-dose assay (leukemia); settings: 48 h, SRB; for GI50 / CC50: Homo sapiens; for CC50: read-out: LC50 (the source's name)
# KM12 = assay: NCI-60 five-dose assay (colon cancer); settings: 48 h, SRB; for GI50 / CC50: Homo sapiens; for CC50: read-out: LC50 (the source's name)
# SNB-19 [7] = assay: NCI-60 five-dose assay (CNS cancer); settings: 48 h, SRB; for GI50 / CC50: Homo sapiens; for CC50: read-out: LC50 (the source's name)
# MALME-3M = assay: NCI-60 five-dose assay (melanoma); settings: 48 h, SRB; for GI50 / LC50: Homo sapiens
# SK-MEL-2 = assay: NCI-60 five-dose assay (melanoma); settings: 48 h, SRB; for GI50 / CC50: Homo sapiens; for CC50: read-out: LC50 (the source's name)
# SK-MEL-28 = assay: NCI-60 five-dose assay (melanoma); settings: 48 h, SRB; for GI50 / LC50: Homo sapiens
# UACC-257 = assay: NCI-60 five-dose assay (melanoma); settings: 48 h, SRB; for GI50 / LC50 (NCI-60 lethal concentration, 50% cell kill): Homo sapiens
# IGROV1 [8] = assay: NCI-60 five-dose assay (ovarian cancer); settings: SRB; for TGI: 48 h; for GI50 / LC50: Homo sapiens, IGROV-1, 48 h
# OVCAR-5 [9] = assay: NCI-60 five-dose assay (ovarian cancer); settings: 48 h, SRB; for GI50 / LC50 (lethal concentration 50%): Homo sapiens
# OVCAR-8 [10] = assay: NCI-60 five-dose assay (ovarian cancer); settings: 48 h, SRB; for GI50 / CC50: Homo sapiens; for CC50: read-out: LC50 (the source's name)
# NCI/ADR-RES [11] = assay: NCI-60 five-dose assay (ovarian cancer); settings: 48 h, SRB; for GI50 / CC50: Homo sapiens; for CC50: read-out: LC50 (the source's name)
# ACHN [12] = assay: NCI-60 five-dose assay (renal cancer); settings: 48 h, SRB; for GI50 / LC50: Homo sapiens
compound,measurement,setting,value
CCOc1ccc(NC2=C(Cl)C(=O)c3nc(C)ccc3C2=O)cc1 [AQQ3],GP (growth percentage),SF-268,32.33%
same,GP (growth percentage),SF-295,51.05%
same,GP (growth percentage),SF-539,−58.82%
same,GP (growth percentage),SNB-19 [1],44.68%
same,GP (growth percentage),SNB-75,96.54%
same,GP (growth percentage),U251,15.60%
same,inhibition at 10 µM,"U251; Homo sapiens, U-251, 10 µM single dose",84.4%
same,GP (growth percentage),IGROV1 [2],−82.43%
same,GP (growth percentage),NCI/ADR-RES [3],−15.63%
same,GP (growth percentage),OVCAR-4,−97.52%
same,GP (growth percentage),OVCAR-5 [4],54.83%
same,GP (growth percentage),OVCAR-8 [5],1.03%
same,inhibition at 10 µM,OVCAR-8 [5]; Homo sapiens,99%
same,GP (growth percentage),SK-OV-3,79.78%
same,GP (growth percentage),786-0,8.39%
same,inhibition at 10 µM,786-0; Homo sapiens,91.6%
same,GP (growth percentage),A498,100.96%
same,GP (growth percentage),ACHN [6],−98.42%
same,GP (growth percentage),SN12C,−57.33%
same,GP (growth percentage),TK-10,121.08%
same,GP (growth percentage),UO-31,−65.05%
same,GP (growth percentage),DU-145,−92.73%
same,GP (growth percentage),PC-3,10.40%
same,inhibition at 10 µM,PC-3,89.6%
same,GP (growth percentage),BT-549,46.48%
same,GP (growth percentage),HS 578T,48.97%
same,GP (growth percentage),MCF7,−66.97%
same,GP (growth percentage),MDA-MB-231/ATCC,−71.74%
same,GP (growth percentage),MDA-MB-468,−95.15%
same,GP (growth percentage),T-47D,−43.85%
same,TGI,K-562,>100 µM
same,GI50,K-562,1.17 µM
same,LC50,K-562,> 100 µM
same,TGI,MOLT-4,>100 µM
same,GI50,MOLT-4,2.49 µM
same,LC50,MOLT-4,> 100 µM
same,TGI,SR,>100 µM
same,GI50,SR,1.09 µM
same,CC50,SR,> 100 µM
same,TGI,KM12,3.07 µM
same,GI50,KM12,1.44 µM
same,CC50,KM12,6.51 µM
same,TGI,SNB-19 [7],3.16 µM
same,GI50,SNB-19 [7],1.68 µM
same,CC50,SNB-19 [7],5.94 µM
same,TGI,MALME-3M,3.16 µM
same,GI50,MALME-3M,1.65 µM
same,LC50,MALME-3M,6.02 µM
same,TGI,SK-MEL-2,3.03 µM
same,GI50,SK-MEL-2,1.63 µM
same,CC50,SK-MEL-2,5.64 µM
same,TGI,SK-MEL-28,3.14 µM
same,GI50,SK-MEL-28,1.73 µM
same,LC50,SK-MEL-28,5.7 µM
same,TGI,UACC-257,2.78 µM
same,GI50,UACC-257,1.39 µM
same,"LC50 (NCI-60 lethal concentration, 50% cell kill)",UACC-257,5.58 µM
same,TGI,IGROV1 [8],2.76 µM
same,GI50,IGROV1 [8],1.36 µM
same,LC50,IGROV1 [8],5.61 µM
same,TGI,OVCAR-5 [9],3.46 µM
same,GI50,OVCAR-5 [9],1.92 µM
same,LC50 (lethal concentration 50%),OVCAR-5 [9],6.25 µM
same,TGI,OVCAR-8 [10],3.01 µM
same,GI50,OVCAR-8 [10],1.57 µM
same,CC50,OVCAR-8 [10],5.77 µM
same,TGI,NCI/ADR-RES [11],4.11 µM
same,GI50,NCI/ADR-RES [11],1.7 µM
same,CC50,NCI/ADR-RES [11],9.93 µM
same,TGI,ACHN [12],2.92 µM
same,GI50,ACHN [12],1.57 µM
same,LC50,ACHN [12],5.45 µM
COc1cc(NC2=C(Cl)C(=O)c3nc(C)ccc3C2=O)cc(OC)c1 [AQQ5],GP (growth percentage),SF-268,37.00%
same,GP (growth percentage),SF-295,51.57%
same,GP (growth percentage),SF-539,−30.92%
same,GP (growth percentage),SNB-19 [1],30.42%
same,GP (growth percentage),SNB-75,−4.09%
same,GP (growth percentage),U251,36.76%
same,GP (growth percentage),IGROV1 [2],−23.13%
same,GP (growth percentage),NCI/ADR-RES [3],−1.26%
same,GP (growth percentage),OVCAR-4,−93.28%
same,GP (growth percentage),OVCAR-5 [4],22.00%
same,inhibition at 10 µM,OVCAR-5 [4]; Homo sapiens,78%
same,GP (growth percentage),OVCAR-8 [5],−0.82%
same,GP (growth percentage),SK-OV-3,93.82%
same,GP (growth percentage),786-0,−59.47%
same,GP (growth percentage),A498,71.10%
same,GP (growth percentage),ACHN [6],−99.62%
same,GP (growth percentage),SN12C,−63.27%
same,GP (growth percentage),TK-10,−50.07%
same,GP (growth percentage),UO-31,−94.65%
same,GP (growth percentage),DU-145,−92.99%
same,GP (growth percentage),PC-3,27.99%
same,inhibition at 10 µM,PC-3,72%
same,GP (growth percentage),BT-549,24.11%
same,GP (growth percentage),HS 578T,−32.78%
same,GP (growth percentage),MCF7,−51.73%
same,GP (growth percentage),MDA-MB-231/ATCC,−28.56%
same,GP (growth percentage),MDA-MB-468,−78.49%
same,GP (growth percentage),T-47D,−56.01%
same,TGI,K-562,>100 µM
same,GI50,K-562,0.381 µM
same,LC50,K-562,> 100 µM
same,TGI,MOLT-4,7.00 µM
same,GI50,MOLT-4,1.5 µM
same,LC50,MOLT-4,> 100 µM
same,TGI,SR,2.43 µM
same,GI50,SR,0.35 µM
same,CC50,SR,> 100 µM
same,TGI,KM12,26.6 µM
same,GI50,KM12,13 µM
same,CC50,KM12,54.7 µM
same,TGI,SNB-19 [7],18.8 µM
same,GI50,SNB-19 [7],5.82 µM
same,CC50,SNB-19 [7],44.2 µM
same,TGI,MALME-3M,3.28 µM
same,GI50,MALME-3M,1.76 µM
same,LC50,MALME-3M,6.11 µM
same,TGI,SK-MEL-2,3.10 µM
same,GI50,SK-MEL-2,1.59 µM
same,CC50,SK-MEL-2,6.03 µM
same,TGI,SK-MEL-28,3.23 µM
same,GI50,SK-MEL-28,1.79 µM
same,LC50,SK-MEL-28,5.85 µM
same,TGI,UACC-257,2.85 µM
same,GI50,UACC-257,1.51 µM
same,"LC50 (NCI-60 lethal concentration, 50% cell kill)",UACC-257,5.37 µM
same,TGI,IGROV1 [8],3.55 µM
same,GI50,IGROV1 [8],1.73 µM
same,LC50,IGROV1 [8],7.26 µM
same,TGI,OVCAR-5 [9],5.79 µM
same,GI50,OVCAR-5 [9],2.38 µM
same,LC50 (lethal concentration 50%),OVCAR-5 [9],23.7 µM
same,TGI,OVCAR-8 [10],3.28 µM
same,GI50,OVCAR-8 [10],1.64 µM
same,CC50,OVCAR-8 [10],6.56 µM
same,TGI,NCI/ADR-RES [11],4.47 µM
same,GI50,NCI/ADR-RES [11],1.81 µM
same,CC50,NCI/ADR-RES [11],21.7 µM
same,TGI,ACHN [12],3.04 µM
same,GI50,ACHN [12],1.67 µM
same,LC50,ACHN [12],5.51 µM
